Measurements as given in US7319098B2, “1,3-dioxoisoindole derivatives having selective antagonism of T-type calcium channel” (Korea Institute of Science and Technology, priority 2006, dated 2008).

How the values were obtained:
α1G T-type Ca2+ currents = target: T1, α1G T-type Ca2+ currents (Homo sapiens, UniProt O43497); test: Electrophysiological whole cell patch clamp method in HEK293 cell; assay type: cell-based; details: peak current, step to −30 mV, read-out: Activity (IC50) against T-type calcium channel
T1 construct: expressed in transfected cells; host or cells: HEK293
Procedure: Meanwhile, the antagonistic activity of the novel compound of Formula (1) herein against T-type calcium channel was tested as described below. The synthesized compounds were tested for the activity against T-type calcium channel with FDSS6000. […] For the recordings of α1G T-type Ca^2+ currents, the standard whole-cell patch-clamp method was utilized as previously described. Briefly, borosilicate glass electrodes with a resistance of 3˜4 MΩ were pulled and filled with the internal solution contained (in mM): 130 KCl, 11 EGTA, 5 Mg-ATP, and 10 HEPES (pH 7.4). […] The molar concentrations of test compounds required to produce 50% inhibition of peak currents (IC50) were determined from fitting raw data into dose-response curves. The current recordings were obtained using an EPC-9 amplifier and Pulse/Pulsefit software program (HEKA, Germany).

α1G T-type Ca2+ channels = target: T2, α1G T-type Ca2+ channels (Homo sapiens, UniProt O43497); test: Screening of activity against T-type calcium channel with FDSS6000 (fluorescence, KCl-induced [Ca2+]i increase); assay type: cell-based; details: HEK293 cells expressing α1G and Kir2.1, read-out: Inhibitory effect (%) of T-type calcium channel, Inhibition (%); for inhibition at 10 µM: NA: Not Active
T2 construct: expressed in transfected cells; host or cells: HEK293 cells stably expressing α1G and Kir2.1
How it was run: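 HEK293 cells stably expressing α1G plus Kir2.1 were loaded with 5 μM fluo3/AM for 60 min at room temperature in HEPES buffer pH 7.4. In buffer with 10 mM CaCl2, cells were pretreated with compound, then depolarized with 70 mM KCl. The rise in [Ca2+]i was measured by fluorescence […].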

[1] = spinal nerve ligation animal model; cited from earlier work

T1 sequence (O43497 whole entry): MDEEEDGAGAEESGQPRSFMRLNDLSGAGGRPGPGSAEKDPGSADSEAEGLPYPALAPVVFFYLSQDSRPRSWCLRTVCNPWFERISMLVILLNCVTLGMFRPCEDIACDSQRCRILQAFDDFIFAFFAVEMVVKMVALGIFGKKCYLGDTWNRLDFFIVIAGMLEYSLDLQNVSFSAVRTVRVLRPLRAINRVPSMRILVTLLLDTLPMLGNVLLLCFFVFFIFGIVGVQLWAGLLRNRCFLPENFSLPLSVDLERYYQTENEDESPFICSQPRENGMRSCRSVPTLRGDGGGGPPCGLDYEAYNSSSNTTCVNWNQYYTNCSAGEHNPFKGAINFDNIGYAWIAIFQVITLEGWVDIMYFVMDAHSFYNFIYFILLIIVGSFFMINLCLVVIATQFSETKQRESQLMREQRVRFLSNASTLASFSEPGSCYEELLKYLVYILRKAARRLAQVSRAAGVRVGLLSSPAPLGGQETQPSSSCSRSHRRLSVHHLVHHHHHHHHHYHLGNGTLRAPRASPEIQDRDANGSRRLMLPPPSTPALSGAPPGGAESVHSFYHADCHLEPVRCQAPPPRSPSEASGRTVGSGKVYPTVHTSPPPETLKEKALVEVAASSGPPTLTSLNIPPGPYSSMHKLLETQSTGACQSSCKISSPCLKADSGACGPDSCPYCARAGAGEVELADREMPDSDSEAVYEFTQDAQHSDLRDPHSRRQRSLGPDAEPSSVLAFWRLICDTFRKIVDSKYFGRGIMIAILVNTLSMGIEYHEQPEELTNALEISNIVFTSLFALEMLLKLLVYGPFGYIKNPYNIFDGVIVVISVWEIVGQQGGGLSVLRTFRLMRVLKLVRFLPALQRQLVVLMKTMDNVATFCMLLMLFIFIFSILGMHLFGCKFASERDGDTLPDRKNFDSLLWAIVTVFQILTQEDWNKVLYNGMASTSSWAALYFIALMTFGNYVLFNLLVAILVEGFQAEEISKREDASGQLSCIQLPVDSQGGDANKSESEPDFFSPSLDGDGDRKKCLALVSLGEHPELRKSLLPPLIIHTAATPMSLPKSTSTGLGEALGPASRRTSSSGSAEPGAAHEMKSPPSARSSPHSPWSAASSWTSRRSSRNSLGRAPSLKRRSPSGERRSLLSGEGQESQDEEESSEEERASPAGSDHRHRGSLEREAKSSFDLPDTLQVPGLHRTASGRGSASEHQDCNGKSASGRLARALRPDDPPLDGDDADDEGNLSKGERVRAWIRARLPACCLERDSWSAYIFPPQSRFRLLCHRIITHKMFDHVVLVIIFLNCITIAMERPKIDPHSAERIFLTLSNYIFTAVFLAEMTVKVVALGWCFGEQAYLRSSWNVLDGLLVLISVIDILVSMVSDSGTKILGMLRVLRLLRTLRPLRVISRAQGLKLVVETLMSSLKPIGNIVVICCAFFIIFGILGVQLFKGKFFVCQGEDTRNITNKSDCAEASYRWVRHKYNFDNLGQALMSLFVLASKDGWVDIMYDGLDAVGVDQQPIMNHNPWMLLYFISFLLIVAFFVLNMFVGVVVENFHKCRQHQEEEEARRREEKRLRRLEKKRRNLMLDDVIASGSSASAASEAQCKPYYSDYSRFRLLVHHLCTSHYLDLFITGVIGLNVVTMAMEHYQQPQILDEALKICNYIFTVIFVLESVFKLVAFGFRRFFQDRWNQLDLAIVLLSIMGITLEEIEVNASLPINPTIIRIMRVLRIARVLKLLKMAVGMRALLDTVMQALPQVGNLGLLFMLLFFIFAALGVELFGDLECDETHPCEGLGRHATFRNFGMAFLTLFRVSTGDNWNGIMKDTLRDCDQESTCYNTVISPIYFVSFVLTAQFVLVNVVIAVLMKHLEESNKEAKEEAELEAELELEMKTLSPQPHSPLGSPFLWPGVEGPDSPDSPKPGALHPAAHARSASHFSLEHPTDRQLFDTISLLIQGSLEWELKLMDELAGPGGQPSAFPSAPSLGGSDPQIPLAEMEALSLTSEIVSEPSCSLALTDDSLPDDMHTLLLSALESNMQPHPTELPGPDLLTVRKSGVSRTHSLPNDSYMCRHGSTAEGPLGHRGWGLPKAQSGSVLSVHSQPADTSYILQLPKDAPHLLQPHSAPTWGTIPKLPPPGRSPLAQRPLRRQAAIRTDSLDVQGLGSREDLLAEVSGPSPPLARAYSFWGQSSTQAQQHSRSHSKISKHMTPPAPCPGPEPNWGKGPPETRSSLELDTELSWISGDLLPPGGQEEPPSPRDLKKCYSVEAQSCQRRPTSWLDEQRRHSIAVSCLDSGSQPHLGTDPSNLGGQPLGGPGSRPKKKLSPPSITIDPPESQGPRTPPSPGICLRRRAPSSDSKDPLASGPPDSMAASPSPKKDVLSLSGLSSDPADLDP
T2 sequence (O43497 whole entry): as above

Row | SMILES | IC50 (α1G T-type Ca2+ currents) [nM] | inhibition at 10 µM (α1G T-type Ca2+ channels) [%] | inhibition at 100 µM (α1G T-type Ca2+ channels) [%] | effect on mechanic and thermal induction (neurogenic pain) [1]
1 | CC1CCCCN1CCCNC(=O)c1ccc2c(c1)C(=O)N(Cc1ccc(Cl)cc1)C2=O (stereo not shown) [Compound 88, 1-(3-{[2-(4-chloro-benzyl)-1,3-dioxo-2,3-dihydro-1H-isoindol-5-carbonyl]-amino}-propyl)-2-methyl-piperidinium chloride] | 930 ± 60 | 46.6 |  | 
2 | Cc1ccccc1CN1C(=O)c2ccc(C(=O)NCCN3CCCCC3)cc2C1=O [Compound 93, 1-(2-{[2-(2-methyl-benzyl)-1,3-dioxo-2,3-dihydro-1H-isoindol-5-carbonyl]-amino}-ethyl)-piperidinium chloride] | 8280 ± 2950 |  | 90.4 | 
3 | Cc1ccccc1CN1C(=O)c2ccc(C(=O)NCCCN3CCCCC3C)cc2C1=O (stereo not shown) [Compound 94, 2-methyl-1-(3-{[2-(2-methyl-benzyl)-1,3-dioxo-2,3-dihydro-1H-isoindol-5-carbonyl]-amino}-propyl)-piperidinium chloride] | 2070 ± 450 |  | 84.8 | 
4 | Cc1cccc(CN2C(=O)c3ccc(C(=O)NCCN4CCCCC4)cc3C2=O)c1 [Compound 99, 1-(2-{[2-(3-methyl-benzyl)-1,3-dioxo-2,3-dihydro-1H-isoindol-5-carbonyl]-amino}-ethyl)-piperidinium chloride] | 1930 ± 230 |  | 89.7 | 
5 | Cc1cccc(CN2C(=O)c3ccc(C(=O)NCCCN4CCCCC4C)cc3C2=O)c1 (stereo not shown) [Compound 100, 2-methyl-1-(3-{[2-(3-methyl-benzyl)-1,3-dioxo-2,3-dihydro-1H-isoindol-5-carbonyl]-amino}-propyl)-piperidinium chloride] | 1840 ± 210 | 48.4 |  | 
6 | CCC1(C)CC(=O)NC1=O (stereo not shown) [Ethosuximide] |  |  |  | dosage-dependent reversed mechanic and thermal induction
7 | COCC(=O)O[C@]1(CCN(C)CCCc2nc3ccccc3[nH]2)CCc2cc(F)ccc2[C@@H]1C(C)C [Mibefradil, reference compound] |  | 75.1 |  | dosage-dependent reversed mechanic and thermal induction
